Measured values taken from patent publication US20060069132A1, “Azolecarboxamide herbicides” (priority 2004, published 2006).

What was measured:
[1] = test system: barnyardgrass; experiment: Test B flooded paddy test; assay type: in vivo, Echinochloa crus-galli; conditions: 1000 g ai/ha, scale 0 to 100 (0 no effect, 100 complete control)
Method in brief: (§1)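 Treated at 2-leaf (paddy) or 1–4-leaf, 2–18 cm (postemergence); greenhouse 13–15 d; visual score vs control, 0 none to 100 complete control; dash = not tested.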

[2] = test system: giant foxtail; experiment: Test B pre-/postemergence herbicide test; assay type: in vivo, Setaria faberi; conditions: for Plant response rating (0 to 100 scale), Foxtail, Giant: 0 is no effect; for Plant response rating (0 to 100 scale), Foxtail, Giant / Plant response rating, Foxtail, Giant: preemergence; for Foxtail, Giant plant response rating: postemergence; for Plant response rating, Foxtail, Giant: 0 = no effect, 100 = complete control
Method in brief: (§2)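 Greenhouse pot assay with simultaneous preemergence (treated seed) and postemergence (2–18 cm seedlings) applications of surfactant-containing, non-phytotoxic solvent formulations. Response scored visually 13–15 days later on a 0–100 scale, 100 meaning complete control.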

[3] = test system: blackgrass; experiment: Test B postemergence herbicide test; assay type: in vivo, Alopecurus myosuroides; conditions: postemergence
Method in brief: as §1

[4] = test system: wild oat; experiment: Test B postemergence herbicide test; assay type: in vivo, Avena fatua; conditions: postemergence
Method in brief: (§3)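 After treating 2-leaf paddy plants or 2–18 cm postemergence plants (1 to 4 leaves) with formulated chemical, researchers kept them in a greenhouse for 13–15 days. Effects were judged visually versus controls: 0 indicates none, 100 total control.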

[5] = test system: wheat; experiment: Test B postemergence herbicide test; assay type: in vivo, Triticum aestivum; set-up: key to Wheat plant response rating: 0 = no effect, 100 = complete control; conditions: postemergence
Method in brief: as §3

[6] = test system: velvetleaf; experiment: Test B pre-/postemergence herbicide test; assay type: in vivo, Abutilon theophrasti; conditions: for Plant response rating (0 to 100 scale), Velvetleaf: 0 is no effect; for Velvetleaf plant response rating: postemergence
Method in brief: as §2

[7] = test system: rice; experiment: Test B flooded paddy test; assay type: in vivo, Oryza sativa; conditions: 1000 g ai/ha, scale 0 to 100 (0 no effect, 100 complete control)
Method in brief: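 Greenhouse test; postemergence application to plants at 1–4 leaves (2–18 cm); paddy species at 2 leaves; evaluated visually vs controls at 13–15 days; scale 0–100 (100 = complete control).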

[8] = test system: pigweed; experiment: Test B pre-/postemergence herbicide test; assay type: in vivo, Amaranthus retroflexus; conditions: for Plant response rating (0 to 100 scale), Pigweed: 0 is no effect; for Plant response rating (0 to 100 scale), Pigweed / Plant response rating, Pigweed: preemergence; for Pigweed plant response rating: postemergence; for Plant response rating, Pigweed: 0 = no effect, 100 = complete control
Method in brief: as §2

[9] = test system: corn; experiment: Test B pre-/postemergence herbicide test; assay type: in vivo, Zea mays; conditions: for Plant response rating (0 to 100 scale), Corn: 0 is no effect; for Plant response rating (0 to 100 scale), Corn / Plant response rating, Corn: preemergence; for Corn plant response rating: postemergence; for Plant response rating, Corn: 0 = no effect, 100 = complete control
Method in brief: as §2

[10] = test system: morningglory; experiment: Test B pre-/postemergence herbicide test; assay type: in vivo, Ipomoea coccinea; conditions: for Plant response rating (0 to 100 scale), Morningglory: 0 is no effect; for Plant response rating (0 to 100 scale), Morningglory / Plant response rating, Morningglory: preemergence; for Morningglory plant response rating: postemergence; for Plant response rating, Morningglory: 0 = no effect, 100 = complete control
Method in brief: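 Herbicidal effect was judged by eye on a 0–100 scale after plants stood 13 to 15 days in the greenhouse following pre- or postemergence treatment with surfactant-containing formulations.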

[11] = test system: Surinam grass; experiment: Test B pre-/postemergence herbicide test; assay type: in vivo, Urochloa decumbens; conditions: for Plant response rating (0 to 100 scale), Surinam Grass: 0 is no effect; for Plant response rating (0 to 100 scale), Surinam Grass / Plant response rating, Surinam Grass: preemergence; for Surinam Grass plant response rating: postemergence; for Plant response rating, Surinam Grass: 0 = no effect, 100 = complete control
Method in brief: as §2

[12] = test system: small flower umbrella sedge; experiment: Test B flooded paddy test; assay type: in vivo, Cyperus difformis; conditions: 1000 g ai/ha, scale 0 to 100 (0 no effect, 100 complete control)
Method in brief: as §1

[13] = test system: large crabgrass; experiment: Test B pre-/postemergence herbicide test; assay type: in vivo, Digitaria sanguinalis; conditions: for Plant response rating (0 to 100 scale), Crabgrass, Large: 0 is no effect; for Plant response rating (0 to 100 scale), Crabgrass, Large / Plant response rating, Crabgrass, Large: preemergence; for Crabgrass, Large plant response rating: postemergence; for Plant response rating, Crabgrass, Large: 0 = no effect, 100 = complete control
Method in brief: as §2

[14] = test system: lambsquarters; experiment: Test B pre-/postemergence herbicide test; assay type: in vivo, Chenopodium album; conditions: for Plant response rating (0 to 100 scale), Lambsquarters: 0 is no effect; for Plant response rating (0 to 100 scale), Lambsquarters / Plant response rating, Lambsquarters: preemergence; for Lambsquarters plant response rating: postemergence; for Plant response rating, Lambsquarters: 0 = no effect, 100 = complete control
Method in brief: as §2

[15] = test system: ducksalad; experiment: Test B flooded paddy test; assay type: in vivo, Heteranthera limosa; conditions: 1000 g ai/ha, scale 0 to 100 (0 no effect, 100 complete control)
Method in brief: as §1

[16] = 125 g ai/ha, 100 is complete control
[17] = 125 g ai/ha, visual rating, scale 0 (no effect) to 100 (complete control)
[18] = 500 g ai/ha, scale 0 to 100, 0 is no effect, 100 is complete control
[19] = 125 g ai/ha, 100 is complete control, preemergence

SMILES: CCN(CC)C(=O)c1cccc(NC(=O)c2cc(C(C)(C)C)nn2C)n1 [Compound 314]
- Barnyardgrass plant response rating [1]: 30
- Plant response rating (0 to 100 scale), Foxtail, Giant [2, 16]: 30
- Foxtail, Giant plant response rating [2, 17]: 20
- Plant response rating, Foxtail, Giant ([2]; 500 g ai/ha, visual rating): 100
- Foxtail, Giant plant response rating [2, 18]: 20
- Blackgrass plant response rating [3, 17]: 10
- Blackgrass plant response rating [3, 18]: 20
- Oat, Wild plant response rating [4, 17]: 10
- Oat, Wild plant response rating [4, 18]: 30
- Wheat plant response rating [5, 17]: 0
- Wheat plant response rating [5, 18]: 10
- Plant response rating (0 to 100 scale), Velvetleaf [6, 19]: 20
- Velvetleaf plant response rating [6, 17]: 20
- Plant response rating, Velvetleaf ([6]; 500 g ai/ha, visual rating, 0 = no effect, 100 = complete control, preemergence): 100
- Velvetleaf plant response rating [6, 18]: 30
- Rice plant response rating [7]: 0
- Plant response rating (0 to 100 scale), Pigweed [8, 16]: 90
- Pigweed plant response rating [8, 17]: 60
- Plant response rating, Pigweed ([8]; 500 g ai/ha, visual rating): 100
- Pigweed plant response rating [8, 18]: 70
- Plant response rating (0 to 100 scale), Corn [9, 16]: 0
- Corn plant response rating [9, 17]: 10
- Plant response rating, Corn ([9]; 500 g ai/ha, visual rating): 10
- Corn plant response rating [9, 18]: 20
- Plant response rating (0 to 100 scale), Morningglory [10, 16]: 0
- Morningglory plant response rating [10, 17]: 20
- Plant response rating, Morningglory ([10]; 500 g ai/ha, visual rating): 20
- Morningglory plant response rating [10, 18]: 80
- Plant response rating (0 to 100 scale), Surinam Grass [11, 16]: 20
- Surinam Grass plant response rating [11, 17]: 20
- Plant response rating, Surinam Grass ([11]; 500 g ai/ha, visual rating): 80
- Surinam Grass plant response rating [11, 18]: 20
- Sedge, Umbrella plant response rating [12]: 60
- Plant response rating (0 to 100 scale), Crabgrass, Large [13, 16]: 20
- Crabgrass, Large plant response rating [13, 17]: 10
- Plant response rating, Crabgrass, Large ([13]; 500 g ai/ha, visual rating): 30
- Crabgrass, Large plant response rating [13, 18]: 20
- Plant response rating (0 to 100 scale), Lambsquarters [14, 16]: 20
- Lambsquarters plant response rating [14, 17]: 30
- Plant response rating, Lambsquarters ([14]; 500 g ai/ha, visual rating): 80
- Lambsquarters plant response rating [14, 18]: 60
- Ducksalad plant response rating [15]: 0

SMILES: C=CCNC(=O)c1cccc(NC(=O)c2cc(C(C)(C)C)nn2C)n1 [Compound 318]
- Barnyardgrass plant response rating [1]: 70
- Plant response rating (0 to 100 scale), Foxtail, Giant [2, 16]: 0
- Foxtail, Giant plant response rating [2, 17]: 10
- Plant response rating, Foxtail, Giant ([2]; 500 g ai/ha, visual rating): 80
- Foxtail, Giant plant response rating [2, 18]: 10
- Blackgrass plant response rating [3, 17]: 10
- Blackgrass plant response rating [3, 18]: 10
- Oat, Wild plant response rating [4, 17]: 0
- Oat, Wild plant response rating [4, 18]: 30
- Wheat plant response rating [5, 17]: 0
- Wheat plant response rating [5, 18]: 10
- Plant response rating (0 to 100 scale), Velvetleaf [6, 19]: 20
- Velvetleaf plant response rating [6, 17]: 40
- Velvetleaf plant response rating [6, 18]: 80
- Rice plant response rating [7]: 40
- Plant response rating (0 to 100 scale), Pigweed [8, 16]: 90
- Pigweed plant response rating [8, 17]: 70
- Plant response rating, Pigweed ([8]; 500 g ai/ha, visual rating): 100
- Pigweed plant response rating [8, 18]: 100
- Plant response rating (0 to 100 scale), Corn [9, 16]: 0
- Corn plant response rating [9, 17]: 20
- Plant response rating, Corn ([9]; 500 g ai/ha, visual rating): 0
- Corn plant response rating [9, 18]: 20
- Plant response rating (0 to 100 scale), Morningglory [10, 16]: 0
- Morningglory plant response rating [10, 17]: 0
- Plant response rating, Morningglory ([10]; 500 g ai/ha, visual rating): 30
- Morningglory plant response rating [10, 18]: 80
- Plant response rating (0 to 100 scale), Surinam Grass [11, 16]: 0
- Surinam Grass plant response rating [11, 17]: 10
- Plant response rating, Surinam Grass ([11]; 500 g ai/ha, visual rating): 40
- Surinam Grass plant response rating [11, 18]: 20
- Sedge, Umbrella plant response rating [12]: 80
- Plant response rating (0 to 100 scale), Crabgrass, Large [13, 16]: 10
- Crabgrass, Large plant response rating [13, 17]: 10
- Plant response rating, Crabgrass, Large ([13]; 500 g ai/ha, visual rating): 90
- Crabgrass, Large plant response rating [13, 18]: 60
- Plant response rating (0 to 100 scale), Lambsquarters [14, 16]: 90
- Lambsquarters plant response rating [14, 17]: 80
- Plant response rating, Lambsquarters ([14]; 500 g ai/ha, visual rating): 100
- Lambsquarters plant response rating [14, 18]: 80
- Ducksalad plant response rating [15]: 70
